Test results from publication PMC8781472, “Two Novel Palbociclib-Resorcinol and Palbociclib-Orcinol Cocrystals with Enhanced Solubility and Dissolution Rate” (Pharmaceutics, 2021).

Assays:
[1] = In vitro cytotoxicity MTT assay; format: cell-based, human; details: human, normal HUVEC cell line
Description: (§1) The human umbilical vein endothelial cell line (HUVEC) was a gift from Prof. F Y Chen (Xiangya Hospital, Changsha, China). The cells were grown in DMEM (Hyclone, Logan, UT, USA) supplied with 10% fetal bovine serum (Hyclone, Logan, UT, USA) and 1% penicillin/streptomycin mixture. Furthermore, all the cells were cultured at a 37 ℃, 5% CO2 humidified incubator. The cytotoxicity activity of compounds PAL, PAL-RES and PAL-ORC for normal HUVEC cell line was assessed via the MTT assay. The cells were cultured at a density of 8000 cells/well in a 96 well plate. Five different concentrations (0, 0.1, 1, 10 and 100 μM) of compounds PAL, PAL-RES and PAL-ORC in DMSO were subsequently added to the wells then incubated under 5% CO2 at 37 °C for 48 h; 50 μL of MTT (2 mg/mL) was added to each well, and the cells were incubated for another 4 h. Next, the liquid in each well was removed, and DMSO (150 μL) was added. The absorbance (OD values) at 490 nm was measured by a microplate reader (Biotek, SYNERGY HTX, VT, USA). Each concentration was tested in triplicate.

[2] = Intrinsic dissolution rate (IDR) experiments; format: physicochemical; details: for Dissolution rate compared with PAL: hydrochloric acid solution pH 1.0; for Increase of dissolution rate compared with PAL: phosphate buffer pH 6.8
Description: In the IDR experiment, one side of the compact was sealed with melted wax, and the other side was not covered to contact with the solution. The temperature was set to 37 ℃, the paddle speed was 100 rpm, the samples were collected at the corresponding time points (phosphate buffer pH 6.8: 60, 120, 180, 240, 300, 360 min; acetic acid buffer pH 4.5: 1, 2, 3, 5, 7, 10 min; hydrochloric acid solution pH 1.0: […]) and supplemented with the same volume of culture base. Filtered the supernatant (0.22 μm) to remove undissolved particles. The PAL concentration was measured by an LC-20AD HPLC system (Shimadzu, Kyoto, Japan). At 40 °C, an Agilent ZORBAX Eclipse XDB-C18 column (250 mm × 4.6 mm, 5 μm, Agilent, Santa Clara, CA, USA) and a UV detector with a wavelength of 356 nm were used to separate the palbociclib. The mobile phase contained 0.1% acetic acid in methanol and water (80:20, v/v), the flow rate was 0.8 mL/min, and the isocratic elution was 10 min. The results were stated as the average of three replicated experiments.

[3] = Powder dissolution (paddle method); format: physicochemical; details: for Equilibrium dissolution: powder, 500 mL phosphate buffer pH 6.8, 37 °C, 50 rpm, 50 mg PAL equivalent
Description: […] PAL, PAL-RES, and PAL-ORC were ground and passed through a 200 mesh sieve. In total, 50 mg of PAL or a PAL equivalent amount of cocrystal were weighed for the powder dissolution experiment. At 5, 10, 15, 30, 45, 60, 90, 120, 180, 240, 300, 360, 480, 600, 720, 1080, 1440 min, taken out 1 mL of the dissolved sample and […] with an equal volume of fresh medium in order to maintain a constant dissolution system. The PAL concentration was measured using the same method as the IDR part. All the experiments were conducted in triplicate.

[4] = Accelerated stability testing, analysed by PXRD; format: physicochemical; details: 40 °C/75% RH for 3 months
Description: For the physical stability studies, the powder samples of the cocrystals were exposed to accelerated condition (YSEI, China) with 40 °C/75% RH for three months; subsequently, the samples were analyzed by PXRD.

[5] = Stress testing (high temperature, high humidity, strong illumination), analysed by PXRD; format: physicochemical; details: high temperature (60 °C), high humidity (92.5% RH), strong illumination (4500 LX)
Description: The cocrystals were subjected to a high temperature (60 °C), high humidity (92.5% RH), and strong illumination (4500 lx) condition respectively for stress testing experiments. The samples were analyzed by PXRD to detect possible solid-state transformation at 0, 5, 10 days.

HUVEC = assay: In vitro cytotoxicity MTT assay; format: cell-based, human; details: normal HUVEC cell line, 48 h
Description: as §1

[6] = set-up: method as in doi:10.1021/acs.cgd.7b01281; details: cited from earlier work
[7] = In vivo pharmacokinetic experiments in rats; set-up: species or system Sprague−Dawley rats; details: SD rats, single oral dose equivalent to 5 mg/kg PAL, plasma PAL
Description: The PK profiles of PAL, PAL-RES and PAL-ORC were determined in adult male Sprague−Dawley rats (SD rats, 200–250 g), which were commercially obtained from Pizhou Oriental Breeding Co., Ltd. (Xuzhou, China). All the experiments were approved by the Ethics and Experimental Animal Committee of Jiangsu Ocean University (Project identification code: 202100021). The rats were housed in standard cages with constant temperature and humidity, and a 12 h light−dark cycling condition was set. Before the commencement of the studies, all the rats were fasted overnight with free access to water for 12 h. Fifteen animals were randomly assigned to three groups (n = 5/group) and intragastrically administrated with PAL, PAL-RES, and PAL-ORC in 0.5% (w/v) aqueous sodium methyl cellulose solution, respectively. A dose equivalent to 5 mg/kg body weight of PAL was used to conduct the evaluation. After the oral administration, blood collections were performed at designated time points (0.5, 1, 2, 4, 6, 8, 12, 24 and 48 h) using centrifuge tubes containing EDTA-K2. Next, the plasma samples were obtained from the whole blood by centrifuging at 4000 rpm for 10 min. The plasma samples were prepared for HPLC analysis by washing with 300 μL methanol, and the PAL concentration was measured using the same method as described in “2.10. Intrinsic dissolution rate (IDR) experiments”. Moreover, the PK parameters were calculated by Phoenix WinNonlin 6.0 pharmacokinetic software package (Certara, Princeton, NJ, USA).

| Structure (SMILES) | Dissolution rate compared with PAL [2] [times] | Increase of dissolution rate compared with PAL [2] | Equilibrium dissolution [3] [%] | Physical stability (PXRD, phase transformation) [4] | Time physically stable under stress testing conditions [5] | IC50 at 48 h [1] [µM] | IC50 (HUVEC) [µM] | also measured |
| --- | --- | --- | --- | --- | --- | --- | --- | --- |
| Oc1cccc(O)c1 [RES, Resorcinol] | – | – | – | – | – | > 100 | – | – |
| Cc1cc(O)cc(O)c1 [ORC, orcinol] | – | – | – | – | – | > 100 | – | – |
| O=C1CCc2ccc(OCCCCN3CCN(c4cccc(Cl)c4Cl)CC3)cc2N1 [ARI, aripiprazole] | – | – | – | – | – | – | – | Maximum aripiprazole concentration [6]: 1.6 mg/L |
| CC(=O)c1c(C)c2cnc(Nc3ccc(N4CCNCC4)cn3)nc2n(C2CCCC2)c1=O [PAL, Palbociclib] | – | – | 20.09 | – | – | 2.4 ± 0.07 | – | Powder dissolution under acidic conditions ([3]; pH 1.0 or 4.5): dissolves completely at pH 1.0 or 4.5 within five minutes; Vd [7]: 20.48 L/kg; AUC(0-t) ([7]; male, Sprague-Dawley, rat): 2620 ng·h/mL; Cmax ([7]; male, Sprague-Dawley, rat): 347 ng/mL; MRT ([7]; male, Sprague-Dawley, rat): 5.36 h; Tmax ([7]; male, Sprague-Dawley, rat): 4 h; half-life ([7]; male, Sprague-Dawley, rat): 19.9 h |

The next lines start with results.

| Dissolution rate compared with PAL [2] [times] | Increase of dissolution rate compared with PAL [2] | Equilibrium dissolution [3] [%] | Physical stability (PXRD, phase transformation) [4] | Time physically stable under stress testing conditions [5] | Structure (SMILES) | IC50 at 48 h [1] [µM] | IC50 (HUVEC) [µM] | also measured |
| --- | --- | --- | --- | --- | --- | --- | --- | --- |
| 1.2 | three times | 60.22 | physically stable | at least 10 days | CC(=O)c1c(C)c2cnc(Nc3ccc(N4CCNCC4)cn3)nc2n(C2CCCC2)c1=O.Oc1cccc(O)c1 [PAL-RES] | – | 4.02 ± 0.07 | Change of dissolution rate compared with PAL ([2]; acetate buffer pH 4.5): only a slight increase in dissolution rate |
| 1.2 | two times | 49.93 | physically stable | at least 10 days | CC(=O)c1c(C)c2cnc(Nc3ccc(N4CCNCC4)cn3)nc2n(C2CCCC2)c1=O.Cc1cc(O)cc(O)c1 [PAL-ORC] | – | 0.85 ± 0.13 | Intrinsic dissolution rate (slope of fitted IDR line) ([2]; acetate buffer pH 4.5, 37 °C, 100 rpm): 0.53 mg/min/cm^2 |
